Experimental data: patent US12390626B2, “Method of producing substances with supersaturated gas, transdermal delivery device thereof, and uses thereof” (Circularity Healthcare, LLC, priority 2012, dated 2025)
Values joined by “and” are separate entries in the source; they are usually repeats but may differ in a detail not shown here. Identical values can stand only once.

Legend:
[1] = tested on: individuals; assay: Measurement of blood flow: Skin Perfusion Pressure (SensiLase System, laser Doppler) on right toe after transdermal CO2 vapor treatment of left thumb; format: in vivo, human; details: for SPP: right toe
Procedure: (§1) The treatment was administered by having an individual insert the left thumb into the open-ended delivery outlet of a device disclosed herein creating a seal. The digit will be “bathed” for five minutes with a vapor including supersaturated dissolved molecular carbon dioxide from a canister providing pure, medical-grade carbon dioxide. Nine individuals were examined.
Tissue perfusion in distal arteries was accessed using a SensiLase System (a FDA-cleared device) and measuring Skin Perfusion Pressure (SPP) and Pulse Volume Recording (PVR). SPP is a pressure measurement in mmHg that assess local blood perfusion in capillaries using a laser Doppler to measure reactive hyperemia, which reflects microcirculation for distal arterial blood flow. PVR is a measurement of plethysmography to assess changes in arterial blood volume. A change in capillary blood flow (CBF) is calculated by determining the change in SPP values over time. For this study, the CBF values of all post-treatment measurements were calculated by dividing the post-treatment SPP value by the pre-treatment SPP value. A measurement of SPP was performed on the individual's right toe at six time points 1) 5 minutes before treatment (pre-treatment); 2) 5 minutes post-treatment; 3) 30 minutes post-treatment; 4) 60 minutes post-treatment; 5) 120 minutes post-treatment; and 6) 240 minutes post-treatment.

[2] = tested on: individuals; assay: Measurement of blood pressure: brachial diastolic and systolic, right upper arm, after transdermal CO2 vapor treatment; format: in vivo, human; parameters: Brachial Systolic / Brachial Diastolic: unit not given here; details: for Brachial Diastolic Percent / Brachial Systolic Percent: percent of pre-treatment; for Brachial Diastolic Percent / Brachial Systolic Percent / Brachial Diastolic / Brachial Systolic: per patient
Procedure: as §1
To conduct this study, individuals from the study described in Example 1 had there blood pressure taken. A measurement of both brachial diastolic blood pressure and systolic blood pressure was performed on the individual's right upper arm at six time points 1) 5 minutes before treatment (pre-treatment); 2) 5 minutes post-treatment; 3) 30 minutes post-treatment; 4) 60 minutes post-treatment; 5) 120 minutes post-treatment; and 6) 240 minutes post-treatment.

[3] = nine individuals, 5-240 min post-treatment
[4] = seven of the nine individuals studied
[5] = Post Treatment (5 min), right upper arm

O=C=O [molecular carbon dioxide, carbon dioxide]
CBF ([1]; Post Treatment (5 min), post-treatment SPP / pre-treatment SPP, per patient): 124% and 104% and 102% and 87% and 117% and 122% and 109% and 113% and 114%
SPP ([1]; Post Treatment (5 min), one value per patient (1-9), 5 min vapor on left thumb): 52 mmHg and 85 mmHg and 84 mmHg and 60 mmHg and 75 mmHg and 89 mmHg and 116 mmHg and 71 mmHg and 132 mmHg
CBF ([1]; Post Treatment (30 min), post/pre-treatment SPP, per patient): 124% and 112% and 109% and 91% and 119% and 92% and 106% and 114%
SPP ([1]; Post Treatment (30 min), per patient): 54 mmHg and 0 mmHg and 92 mmHg and 75 mmHg and 58 mmHg and 87 mmHg and 97 mmHg and 67 mmHg and 142 mmHg
CBF ([1]; Post Treatment (60 min), post/pre-treatment SPP, per patient): 124% (2×) and 102% and 104% and 112% and 84% and 103% and 114% and 134%
SPP ([1]; Post Treatment (60 min), per patient): 54 mmHg (2×) and 84 mmHg and 85 mmHg and 77 mmHg and 75 mmHg and 131 mmHg and 72 mmHg and 156 mmHg
CBF ([1]; Post Treatment (120 min), post/pre-treatment SPP, per patient): 138% and 135% and 109% and 112% and 125% and 129% and 82% and 106% and 119%
SPP ([1]; Post Treatment (120 min), per patient): 58 mmHg and 111 mmHg and 89 mmHg and 77 mmHg and 80 mmHg and 94 mmHg and 87 mmHg and 67 mmHg and 138 mmHg
CBF ([1]; Post Treatment (240 min), post/pre-treatment SPP, per patient): 110% and 120% and 135% and 46% and 95% and 104% and 82% and 103% and 115%
SPP ([1]; Post Treatment (240 min), per patient): 46 mmHg and 98 mmHg and 111 mmHg and 32 mmHg and 61 mmHg and 76 mmHg and 91 mmHg and 65 mmHg and 133 mmHg
increase in capillary blood flow ([1]; four of these (of the seven of nine individuals)): ≥ 35%
effect on blood flow [1, 3]: increases blood flow in all individuals examined at some point during the time period measured
increase in capillary blood flow over baseline [1, 4]: about 25%
duration of increase in capillary blood flow ([1]; six of the nine patients): sustained increases in capillary blood flow over the course of the entire 240 minute study
Brachial Diastolic Percent ([2]; Post Treatment (5 min)): 98% and 100% and 77% (2×) and 113% and 80% (2×) and 89% and 111%
Brachial Systolic Percent ([2]; Post Treatment (5 min)): 92% (2×) and 94% (2×) and 95% and 79% and 98% and 73% and 80%
Brachial Diastolic [2, 5]: 78 and 68 (3×) and 60 (2×) and 72 (2×) and 80
Brachial Systolic [2, 5]: 110 (2×) and 132 and 104 and 98 and 124 and 101 and 112 (2×)
Brachial Diastolic ([2]; Post Treatment (30 min)): 70 (3×) and 58 and 62 and 78 and 80 and 52
Brachial Systolic ([2]; Post Treatment (30 min)): 110 and 98 and 100 and 112 (2×) and 118 (3×)
Brachial Diastolic Percent ([2]; Post Treatment (30 min)): 88% and 73% and 103% and 87% (2×) and 100% and 67% and 92%
Brachial Systolic Percent ([2]; Post Treatment (30 min)): 92% and 89% and 96% and 80% and 94% and 81% and 84% and 97%
Brachial Diastolic ([2]; Post Treatment (60 min)): 82 and 70 and 78 (2×) and 60 and 68 and 50 and 72 and 62
Brachial Systolic ([2]; Post Treatment (60 min)): 138 and 118 (2×) and 115 and 150 and 106 and 110 (2×) and 128
Brachial Diastolic Percent ([2]; Post Treatment (60 min)): 108% and 97% and 98% and 88% and 87% (2×) and 83% and 90% and 79%
Brachial Systolic Percent ([2]; Post Treatment (60 min)): 99% and 97% and 96% (2×) and 107% and 106% and 79% and 102% and 86%
Brachial Diastolic ([2]; Post Treatment (120 min)): 68 (2×) and 70 (2×) and 60 and 49 and 62 and 65 and 69
Brachial Systolic ([2]; Post Treatment (120 min)): 120 and 128 and 90 and 127 and 102 and 110 and 111 and 116 and 118
Brachial Diastolic Percent ([2]; Post Treatment (120 min)): 89% and 97% and 75% and 72% (2×) and 79% and 117% and 86% and 87%
Brachial Systolic Percent ([2]; Post Treatment (120 min)): 86% (2×) and 105% and 75% and 91% and 93% and 106% and 79% and 92%
Brachial Diastolic ([2]; Post Treatment (240 min)): 70 and 64 and 59 and 80 and 68 and 58 and 62 and 71 and 69
Brachial Systolic ([2]; Post Treatment (240 min)): 118 (2×) and 108 (2×) and 113 and 140 and 112 (2×) and 117
Brachial Diastolic Percent ([2]; Post Treatment (240 min)): 92% and 89% (2×) and 74% and 118% and 87% and 97% and 69% and 88%
Brachial Systolic Percent ([2]; Post Treatment (240 min)): 84% and 89% and 94% (2×) and 100% and 102% and 104% and 80% and 85%
effect on blood pressure [2, 3]: decreased blood pressure in all individuals examined at some point during the time period measured
duration of decrease in diastolic and systolic blood pressure [2, 4]: decreased diastolic and systolic blood pressure over the course of the entire 240 minute study
